In patent US20200399250A1, “Pyrimidine Derivatives as Tropomyosin Receptor Kinase A (TRKA) Inhibitors” (BIOMED X GMBH, priority 2017, published 2020):
pKd: −log10 of the molar value. Where “and” joins values, the source holds several entries; their conditions need not be identical. Equal entries are not always repeated.

What was measured:
TrkA [1] = target: T1, TrkA (Homo sapiens, UniProt P04629); experiment: KINOMEscan primary screen against TrkA; type: binding; details: % of control
Experimental: (§1) Compounds were initially tested in a primary screen against TrkA (at 10 and 100 nM) and AurA (at 100 nM and 1 μM) using the KINOMEscan technology from DiscoverX Corporation, Fremont, Calif., USA (https://www.discoverx.com/services/drug-discovery-development-services/kinase-profiling/kinomescan).
Results were reported as % of control (% Ctrl.=(test compound signal−positive control signal)/(DMSO signal−positive control signal). KINOMEscan is an active site-directed competition binding assay that quantitatively measures the ability of a compound to compete with an immobilized, active-site directed ligand.

AurA = target: T2, AurA (Homo sapiens, UniProt O14965); experiment: KINOMEscan primary screen against AurA; type: binding; details: % of control
T2 sequence (O14965 1-403): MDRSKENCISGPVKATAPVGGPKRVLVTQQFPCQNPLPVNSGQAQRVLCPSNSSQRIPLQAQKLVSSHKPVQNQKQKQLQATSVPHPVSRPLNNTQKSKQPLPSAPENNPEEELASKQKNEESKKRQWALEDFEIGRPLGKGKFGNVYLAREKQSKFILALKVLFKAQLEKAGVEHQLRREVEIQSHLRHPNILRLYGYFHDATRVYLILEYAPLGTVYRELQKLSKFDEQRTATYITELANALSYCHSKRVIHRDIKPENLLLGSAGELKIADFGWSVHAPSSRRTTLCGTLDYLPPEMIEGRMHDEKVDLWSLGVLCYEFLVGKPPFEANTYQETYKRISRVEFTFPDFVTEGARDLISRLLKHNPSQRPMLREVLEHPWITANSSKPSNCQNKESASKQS
Experimental: as §1

TrkA [2] = target: T1, TrkA; experiment: KdELECT Kd measurement (KINOMEscan), TrkA; type: binding
Experimental: (§2) Kd measurements were done via the KdELECT product service from DiscoverX Corporation (Freemont, Calif., USA) which also employs the KINOMEscan technology. Here, inhibitor binding constants (Kd values) are calculated from duplicate 11-point dose-response curves.

TrkA [3] = experiment: KdELECT Kd measurement (KINOMEscan), TrkA; type: binding
Experimental: as §2

[4] = Plasma concentration of compound a1 after i.v. injection in mice (LC-MS-MS); type: in vivo, C57Bl/6 mice; details: for Plasma Conc. of Compound a1: 1 hour, single animal; for concentration at 1 h: female, C57Bl/6, mouse, plasma, intravenous
Experimental: Compound a1 was synthesized under contract by the company Enamine Ltd. according to Example 1. Dimethylsulfoxide (DMSO) from J. T. Baker (Germany), Cremophor EL (Polyoxyethyleneglycerol triricinoleate 35 castor oil) from BASF (Germany), and Saline solution 0.9% from B. Braun (Germany) were used in this study. Two types of formulations were prepared: a formulation with a high dose of compound a1 (9 mM) and a formulation with a low dose of compound a1 (1.8 mM); c.f. Tables 5 and 6. First, a 100 mM stock solution of compound a1 in DMSO was prepared by dissolving 18.46 mg of compound a1 (molecular weight of 461.56 g/mol) in 400 μl DMSO at room temperature. The formulation with the high dose of a1 was prepared using 9% a1-DMSO stock solution, 10% Cremophor EL, and 81% saline. The formulation with the low dose of a1 contained 1.8% a1-DMSO stock solution, 5% Cremophor EL, and 93.2% saline; c.f. FIG. 2.
Experiments were carried out in accordance with the EU Directive 86/609/EEC on the protection of animals used for scientific purposes. Female adult C57Bl/6 mice (6-8 weeks old, body weight 20 g) were treated with 5 mg/kg (low dose) and 25 mg/kg (high dose) compound a1 or with vehicle (formulations without compound a1) or with saline by intravenous (i.v.) injections for 1 hour using a 1 ml syringe (29-G, Terumo); c.f. Table 6. After injection, the mice were returned to their home cages, and after 1 hour, the mice were anaesthetized with isoflurane. Terminal blood samples were collected using a 1 ml syringe (20-G needle, B. Braun). The blood was immediately transferred into a 1.3 ml heparin-coated tube (Sarstedt). Plasma was collected by centrifugation at 1500 g for 15 minutes. The supernatant was placed in a 1.5 ml tube on dry ice and stored at −20° C.
The quantification of compound a1 in murine plasma samples was performed via liquid chromatography tandem mass spectrometry (LC-MS-MS).

T1 sequence (P04629 33-796): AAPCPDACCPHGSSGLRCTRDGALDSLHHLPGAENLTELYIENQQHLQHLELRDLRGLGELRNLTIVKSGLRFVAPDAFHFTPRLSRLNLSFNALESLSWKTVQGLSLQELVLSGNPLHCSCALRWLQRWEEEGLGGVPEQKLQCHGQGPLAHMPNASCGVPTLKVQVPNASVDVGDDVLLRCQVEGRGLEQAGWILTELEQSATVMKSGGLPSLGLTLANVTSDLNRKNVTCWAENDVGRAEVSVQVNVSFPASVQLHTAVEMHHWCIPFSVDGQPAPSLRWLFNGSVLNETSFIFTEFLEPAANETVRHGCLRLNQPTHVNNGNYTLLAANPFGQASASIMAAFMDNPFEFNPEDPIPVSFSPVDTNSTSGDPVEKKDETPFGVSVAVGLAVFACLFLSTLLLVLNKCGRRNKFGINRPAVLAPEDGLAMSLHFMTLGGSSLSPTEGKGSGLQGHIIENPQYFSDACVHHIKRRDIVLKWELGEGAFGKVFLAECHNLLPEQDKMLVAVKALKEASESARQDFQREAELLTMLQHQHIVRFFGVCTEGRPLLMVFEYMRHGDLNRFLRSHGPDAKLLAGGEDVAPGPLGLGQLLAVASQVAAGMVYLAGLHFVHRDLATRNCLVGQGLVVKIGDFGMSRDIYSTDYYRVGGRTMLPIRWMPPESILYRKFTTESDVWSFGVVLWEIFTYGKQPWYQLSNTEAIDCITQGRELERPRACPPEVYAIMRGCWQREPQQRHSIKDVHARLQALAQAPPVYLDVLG

Q: With `CN1CCN(c2cc(Nc3cc(-c4cccc(F)c4)[nH]n3)nc(Sc3ccccc3)n2)CC1` [a1, N-[5-(3-fluorophenyl)-1H-pyrazol-3-yl]-6-(4-methylpiperazin-1-yl)-2-(phenylsulfanyl)pyrimidin-4-amine] as the compound, how does the “% Ctrl. TrkA @10 nM” value (TrkA [1]; 10 nM compound) read?
A: The value was 11 % Ctrl.

Q: And the “% Ctrl. TrkA @100 nM” value (TrkA [1]; 100 nM compound)?
A: Its value is 1.9 % Ctrl.

Q: And the “% Ctrl. AurA @100 nM” value (AurA; 100 nM compound)?
A: The value was 97 % Ctrl.

Q: What about the “% Ctrl. AurA @1 μM” value (AurA; 1 μM compound) of the same compound?
A: Its value is 92 % Ctrl.

Q: What about the “TrkA [pKd]” value (TrkA [2]) of the same compound?
A: Its value is 8.6.

Q: And the pKd (TrkA [2]; duplicate 11-point dose-response curves)?
A: The pKd was 8.59.

Q: And the ΔpKd (TrkA [3]; TrkA pKd versus AurA pKd)?
A: The ΔpKd was 3.3.

Q: And the “improved selectivity against off-target AurA” value (TrkA [3]; TrkA versus AurA)?
A: Its value is 10,000 fold.

Q: What about the “Plasma Conc. of Compound a1” value ([4]; a1_high formulation, 25 mg/kg i.v., 25 mg/kg) of the same compound?
A: The value was 805 nM and 920 nM.

Q: What about the “Plasma Conc. of Compound a1” value ([4]; a1_low formulation, 5 mg/kg i.v., 5 mg/kg) of the same compound?
A: Its value is 272 nM and 407 nM.

Q: What about the concentration at 1 h ([4]; 5 mg/kg (low dose) i.v.) of the same compound?
A: The concentration at 1 h was 340 nM.

Q: What about the concentration at 1 h ([4]; 25 mg/kg (high dose) i.v.) of the same compound?
A: Its concentration at 1 h is 863 nM.
